In patent US8669247B2, “2,5-disubstituted arylsulfonamide CCR3 antagonists” (Axikin Pharmaceuticals, Inc., priority 2009, dated 2014):

Tests used:
[1] = biological target: T1, CCR3 receptor (UniProt P51677); assay: CCR3 Receptor Binding Assay ([125I]-labeled human eotaxin/CCL11 displacement on cells); conditions: Free (free form of the compound)
T1 sequence (P51677 1-355): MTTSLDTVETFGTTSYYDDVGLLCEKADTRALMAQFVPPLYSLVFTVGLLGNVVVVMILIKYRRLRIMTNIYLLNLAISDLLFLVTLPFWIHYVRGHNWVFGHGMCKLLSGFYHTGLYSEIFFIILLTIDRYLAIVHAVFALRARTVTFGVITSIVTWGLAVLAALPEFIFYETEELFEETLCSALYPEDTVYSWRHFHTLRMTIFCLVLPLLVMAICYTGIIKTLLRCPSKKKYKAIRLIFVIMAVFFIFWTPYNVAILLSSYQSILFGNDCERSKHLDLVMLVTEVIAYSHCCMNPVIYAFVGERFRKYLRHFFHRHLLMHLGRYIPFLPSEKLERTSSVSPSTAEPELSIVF
Method: Cells were washed once with PBS and resuspended in a binding buffer (25 mM HEPES pH 7.6, 5 mM MgCl2, 1 mM CaCl2, 0.5% BSA, 0.1% NaN3), […] of cell suspension (2×10^5 cells/well) and 0.1 nM [^125I]-labeled human eotaxin/CCL11 (2000 Ci/mmol specific activity) were mixed in a 96-well U-bottom polypropylene plate, and incubated for 60 min at room temperature for the binding reaction. The cell suspension was then transferred to a filtration plate (#MAFB, Millipore), and washed 3 times with the binding buffer containing 0.5 M NaCl, scintillant added, and the radioactivity was counted on a TopCount (Packard). For the determination of non-specific binding, the cell suspension and [^125I]-labeled human eotaxin/CCL11 were incubated in the presence of 500 nM of unlabeled human eotaxin/CCL11. See, lino et al., “Molecular cloning and functional characterization of cynomolgus monkey (Macaca fascicularis) CC chemokine receptor, CCR3,” Cytokine 2002, 19, 276-286.

Compound	melting point [°C]	Ki [1] [nM]
CC1CN(S(=O)(=O)c2cc([N+](=O)[O-])ccc2Oc2cc(Cl)ccc2Cl)CC(C)N1 (stereo not shown) [Compound 104, 1-(2-(2,5-Dichlorophenoxy)-5-nitrophenylsulfonyl)-3,5-dimethylpiperazine]	161 to 163	10 to 25
O=[N+]([O-])c1ccc(Sc2cc(Cl)ccc2Cl)c(S(=O)(=O)N2CCOCC2)c1 [Compound 110, 4-(2-(2,5-Dichlorophenylthio)-5-nitrophenylsulfonyl)morpholine]	182 to 186	> 5
O=[N+]([O-])c1ccc(Oc2cc(Cl)ccc2Cl)c(S(=O)(=O)N2CCOCC2)c1 [Compound 111, 4-(2-(2,5-Dichlorophenoxy)-5-nitrophenylsulfonyl)morpholine]	168 to 170	> 5
Cc1ccc(C)c(Sc2ccc([N+](=O)[O-])cc2S(=O)(=O)N2CCOCC2)c1 [Compound 112, 4-(2-(2,5-Dimethylphenylthio)-5-nitrophenylsulfonyl)morpholine]	141 to 143	> 5
Cc1ccc(C)c(Oc2ccc([N+](=O)[O-])cc2S(=O)(=O)N2CCOCC2)c1 [Compound 113, 4-(2-(2,5-Dimethylphenoxy)-5-nitrophenylsulfonyl)morpholine]	124 to 127	> 5
O=[N+]([O-])c1ccc(Sc2cc(Cl)ccc2Cl)c(S(=O)(=O)N2CCSCC2)c1 [Compound 114, 4-(2-(2,5-Dichlorophenylthio)-5-nitrophenylsulfonyl)thiomorpholine]	189 to 191	> 5
O=[N+]([O-])c1ccc(Oc2cc(Cl)ccc2Cl)c(S(=O)(=O)N2CCSCC2)c1 [Compound 115, 4-(2-(2,5-Dichlorophenoxy)-5-nitrophenylsulfonyl)thiomorpholine]	191 to 194	> 5
Cc1ccc(C)c(Sc2ccc([N+](=O)[O-])cc2S(=O)(=O)N2CCSCC2)c1 [Compound 116, 4-(2-(2,5-Dimethylphenylthio)-5-nitrophenylsulfonyl)thiomorpholine]	130 to 137	> 5
Cc1ccc(C)c(Oc2ccc([N+](=O)[O-])cc2S(=O)(=O)N2CCSCC2)c1 [Compound 117, 4-(2-(2,5-Dimethylphenoxy)-5-nitrophenylsulfonyl)thiomorpholine]	144 to 147	> 5
Cc1ccc(C)c(Sc2ccc([N+](=O)[O-])cc2S(=O)(=O)N2CCNCC2)c1 [Compound 122, 1-(2-(2,5-Dimethylphenylthio)-5-nitrophenylsulfonyl)piperazine]	142 to 145	100 to 500
O=[N+]([O-])c1ccc(Sc2cc(Cl)ccc2Cl)c(S(=O)(=O)N2CCNCC2)c1 [Compound 123, 1-(2-(2,5-Dichlorophenylthio)-5-nitrophenylsulfonyl)piperazine]	150 to 153	10 to 25
